Results on two compounds are retold here after US20260284152A1, “COMPOSITION COMPRISING GV1001 FOR PREVENTING OR TREATING MACULAR DEGENERATION” (GEMVAX & KAEL CO., LTD., priority 2023, published 2026).

Test [1] relates to retinal pigment epithelial cell line ARPE-19. Description: Reduction of epithelial-mesenchymal transition (cadherin 1 / vimentin, confocal microscope) in H2O2-treated retinal pigment epithelial cells. In kind it is cell-based. The following applies: ARPE-19, H2O2 50 μM. The source says: (§1) Reactive oxygen species were generated by treating retinal pigment epithelial cell line ARPE-19 with hydrogen peroxide (H2O2).
(§2) Degenerated retinal pigment epithelial cells that appear in age-related macular degeneration were set as a model cell line, and epithelial loss of retinal pigment epithelial cells was induced.
The degree of epithelial-mesenchymal transition, which indicates degeneration of retinal pigment epithelial cells, was confirmed by observing changes in cadherin 1 as an epithelial cell marker, and vimentin as a mesenchymal cell marker, using a confocal microscope, and the results are shown in FIG. 7.

Test [2] shares this test system. In words: Reduction of reactive oxygen species (DCF-DA fluorescence) in H2O2-treated retinal pigment epithelial cells. Type of test: cell-based.
Description: as §1, §2
Using DCF-DA as a reactive oxygen species dye sample, the change in the level of reactive oxygen species in retinal pigment epithelial cells (ARPE-19) induced by GV1001 was confirmed by fluorescence microscopy, and the results are shown in FIGS. 6A and 6B. DCF-DA fluorescence intensity increased when oxidative stress was induced by H2O2, but decreased by treatment with metformin, a positive control.

Test [3] relates to C57BL/6 mice injected with NaIO3. Description: Short-term administration in NaIO3 mouse model of age-related macular degeneration (RPE/choroid flat mount, phalloidin). Type of test: in vivo. The following applies: NaIO3 20 mg/kg IV mice. The source says: Mice injected with sodium iodate (NaIO3) are used as a representative model of age-related macular degeneration. A mouse model of age-related macular degeneration was established by injecting NaIO3 into C57BL/6 mice, thereby inducing oxidative stress specific to retinal pigment epithelial cells and causing damage.
To determine whether the disruption of tight junctions in the retinal pigment epithelium caused by NaIO3 administration was inhibited by GV1001, the retinal pigment epithelium/choroid (RPE/choroid) was flat-mounted, and the junctions between epithelial cells were stained with phalloidin samples and observed using a confocal microscope.
To determine whether the disruption of tight junctions in the retinal pigment epithelial cell layer was inhibited by GV1001, the retinal pigment epithelial layer/choroid was flat-mounted, and the junctions between epithelial cells were stained with phalloidin and observed using a confocal microscope.

The test system is the same in test [4]. In words: Long-term administration in NaIO3 mouse model of age-related macular degeneration (RPE/choroid flat mount, phalloidin). Type of test: in vivo. As to conditions: NaIO3 20 mg/kg IV mice; for Tight junction structure of the retinal pigment epithelium: long-term post-treatment; for Tight junction structure of the retinal pigment epithelial layer: long-term pre-treatment. The text has this:
A mouse model of age-related macular degeneration was established by injecting […] into C57BL/6 mice and inducing oxidative stress specifically in retinal pigment epithelial cells to cause damage.
The GV1001 dose determined through an efficacy evaluation test by short-term administration was used for efficacy evaluation in long-term administration.
The animal experimental group for verification of efficacy in reducing retinal pigment epithelial degeneration by long-term administration (3 months) of GV1001 was set up as shown in Table 4 below.
To determine whether the disruption of tight junctions in the retinal pigment epithelium was inhibited by GV1001, the retinal pigment epithelium/choroid was flat-mounted, and the junctions between epithelial cells were stained with phalloidin-stained samples and observed using a confocal microscope to determine the degree of disruption of tight junctions.
To determine whether the disruption of the tight junctions in the retinal pigment epithelium was reduced by long-term GV1001 administration, the retinal pigment epithelium/choroid was flat-mounted, and the junctions between epithelial cells were stained with phalloidin and observed using a confocal microscope.

Take `CN(C)C(=N)N=C(N)N` [metformin, reference compound]: in test [1] (metformin 1 mM positive control), the “Epithelial-mesenchymal transition (cadherin 1, vimentin)” value is “reduced”. In test [2] (ARPE-19, H2O2 50 μM oxidative stress, metformin 1 mM positive control), the “DCF-DA fluorescence intensity (reactive oxygen species)” value is on record as “decreased”. The “Tight junction structure of the retinal pigment epithelial cell layer” value in test [3] (metformin 4 mg/mL in drinking water for 7 days before NaIO3) was “maintained”.
“GV1001: A peptide consisting of 16 amino acids, having the amino acid sequence of SEQ ID NO: 1, derived from human telomerase (EARPALLTSRLRFIPK; UniProt O14746 611-626, looked up, fragment)”: the “Epithelial-mesenchymal transition (cadherin 1, vimentin)” value in test [1] (post-treatment, 10 μM) was “reduced”; in test [1] (pre-treatment, 0.01 μM) it was “reduced”. The “DCF-DA fluorescence intensity (reactive oxygen species)” value in test [2] (ARPE-19, H2O2 50 μM, post-treatment (2 h after 24 h H2O2), 0.1 μM) is recorded as “decreased”; in test [2] (ARPE-19, H2O2 50 μM, post-treatment (2 h after 24 h H2O2), 10 μM), “decreased”; in test [2] (ARPE-19, H2O2 50 μM, pre-treatment (2 h before 24 h H2O2), 0.01 μM), “decreased”. Moreover, the “Tight junction structure of the retinal pigment epithelium” value in test [4] (0.1 mg/kg SC three times a week for 10 weeks) and in test [4] (1.0 mg/kg SC three times a week for 10 weeks) was “well maintained” in each case. In addition, the “Tight junction structure of the retinal pigment epithelial layer” value in test [4] (0.1 mg/kg SC three times a week for 12 weeks) and in test [4] (1.0 mg/kg SC three times a week for 12 weeks) was “well maintained” in each case. Moreover, the “Tight junction structure of the retinal pigment epithelial cell layer” value in test [3] (short-term post-treatment, 0.5 mg/kg SC three times within one week from 10 days after NaIO3) was “maintained”; in test [3] (short-term post-treatment, 1.0 mg/kg SC three times within one week from 10 days after NaIO3), “maintained”; in test [3] (short-term pre-treatment, 0.1 mg/kg SC three times a week for two weeks), “maintained”.
